Laboratory results reported in US9175030B2, “Derivatives of avicin D and methods of making and using thereof” (priority 2012, dated 2015).

Tests used:
A498 = test: MTT growth inhibition, A498; format: cell-based, human; conditions: A498 cells, 72 hrs
Protocol: (§1) The growth inhibitory effects of avicin D and oxetane derivative were measured using the MTT [3-(4,5-dimethylthiazol-2-yl)-2,5-diphenyl tetrazolium bromide] reduction assay as described in Haridas et al. (2001). Cells were cultured with varying concentrations of avicin D or oxetane in 96-well plates for 72 hrs at 37° C. At the end of 72 hrs, cells were stained with MTT for 2 hrs and then incubated with lysis buffer (20% SDS in 50% N,N-dimethylformamide) for another 6 hrs. Optical density at 570 nm was used as a measure of cell viability.
(§2) The cell lines 769P, A498, CAKI-1, and CAKI-2 are derived from primary human renal-cell cancers (RCC). A549 is a human lung adenocarcinoma epithelial cell line. B16F10 is a mouse melanoma cell line. BT474, BT 474 M1, BT549, MCF7, […], and ZR751 are breast cancer cell lines. CCRF-CEM, Jurkat, and MOLT4 are leukemia cell lines. HELA is cell line derived from cervical caner. HepG2 is a human hepatocellular liver carcinoma cell line. JeKo-1 is a mantle cell lymphoma (MCL) cell line. LnCAP is a cell line was established from a metastatic lesion of human prostatic adenocarcinoma. MM.1 and RPMI-8226 are human multiple myeloma cell lines. OVCAR3 and SKOV3 are ovarian cancer cell lines. Panc-1 is a pancreatic cancer cell line. PC3 is a prostate cancer cell line. Raji is a Burkitt's lymphoma cell line. RL is a non-Hodgkin's lymphoma cell line. […]

A549 = test: MTT growth inhibition, A549; format: cell-based, human; conditions: A549 cells, 72 hrs
Protocol: as §1, §2

B16F10 = test: MTT growth inhibition, B16F10; format: cell-based, mouse; conditions: B16F10 cells, 72 hrs
Protocol: as §1, §2

CAKI-1 = test: MTT growth inhibition, CAKI-1; format: cell-based, human; conditions: CAKI-1 cells, 72 hrs
Protocol: as §1, §2

CAKI-2 = test: MTT growth inhibition, CAKI-2; format: cell-based, human; conditions: CAKI-2 cells, 72 hrs
Protocol: as §1, §2

Hela = test: MTT growth inhibition, Hela; format: cell-based; conditions: Hela cells, 72 hrs
Protocol: as §1, §2

JEKO-1 = test: MTT growth inhibition, JEKO-1; format: cell-based; conditions: JEKO-1 cells, 72 hrs
Protocol: as §1, §2

Jurkat = test: MTT growth inhibition, Jurkat; format: cell-based, human; conditions: Jurkat cells, 72 hrs (Table 5)
Protocol: as §1, §2

MM1 = test: MTT growth inhibition, MM1; format: cell-based, human; conditions: MM1 cells, 72 hrs
Protocol: as §1, §2

OVCAR3 = test: MTT growth inhibition, OVCAR3; format: cell-based; conditions: OVCAR3 cells, 72 hrs
Protocol: as §1, §2

U2OS = test: MTT growth inhibition, U2OS; format: cell-based, human; conditions: U2OS cells, 72 hrs
Protocol: as §1, §2

WSU-DLCL2 = test: MTT growth inhibition, WSU-DLCL2; format: cell-based, human; conditions: WSU-DLCL2 cells, 72 hrs
Protocol: as §1, §2

ZR751 = test: MTT growth inhibition, ZR751; format: cell-based; conditions: ZR751 cells, 72 hrs
Protocol: as §1, §2

GM0131 = test: MTT growth inhibition, GM0131; format: cell-based; conditions: GM0131 wild type human fibroblast cells, 72 hrs
Protocol: as §1, §2

[1] = system: HMLE cells expressing TWIST; test: Mammosphere formation, cancer stem cell model; format: cell-based, human; conditions: 60 nM, added day 7 and every 7th day, seen on day 21
Protocol: Human mammary epithelial cells were transfected with transcription factor TWIST acquiring mesenchymal stem cell-like traits, including the ability to form mammospheres. See Cano et al., 2000; Yang et al., Cell, 2004; Mani et al., 2008, which are all incorporated herein by reference.
HMLE cells expressing TWIST were plated at 100 cells/0.1 ml in 96-well plates. The cells were cultured in MEGM media supplemented with 20 ng/mL bFGF, 10 ng/mL EGF, 4 ug/mL heparin, and 1% methyl cellulose. Formation of spheres could be seen around day 7. Avicin D/Compound 8 (60 nM) was first added to the cultures on day 7 and subsequently every 7th day. […] See FIGS. 6A-D, which show mammospheres treated with 60 nM of Avicin D or Compound 8 for fourteen days. The ability of these agents to induce cell kill in both the tumor cell population as well as the stem-like cells enhances their potential for use as a cancer therapy.

[2] = system: p(IL6-κB)350hu.IL6P-Luc in HEK 293T cells; test: TNF-induced NF-κB luciferase reporter in HEK 293T cells with and without GR (FIG. 3); format: cell-based
Excerpt: However, TNF-induced activation of p(IL6-κB)350hu.IL6P-Luc was inhibited by both avicin D and Dex in HEK 293T cells transfected with GR (FIG. 3). […] This observation supports the notion that avicins are not able to induce GR transactivation.

[3] = system: PKA-mediated CREB activity; conditions: cited from earlier work
adiponectin = conditions: adipocytes; cited from earlier work
human preadipocytes = conditions: cited from earlier work

## C=C[C@](C)(O)CC/C=C(\CO)C(=O)O[C@H]1[C@H](O)[C@@H](O)[C@H](O[C@@](C)(C=C)CC/C=C(\CO)C(=O)O[C@H]2C[C@]3(C(=O)O[C@@H]4O[C@H](CO)[C@@H](O)[C@H](O)[C@H]4O[C@@H]4O[C@@H](C)[C@H](O[C@@H]5O[C@@H](CO)[C@H](O)[C@H]5O)[C@@H](O[C@@H]5O[C@H](CO)[C@@H](O)[C@H](O)[C@H]5O)[C@H]4O)[C@H](O)C[C@]4(C)C(=CC[C@@H]5[C@@]6(C)CC[C@H](O[C@@H]7O[C@H](CO[C@@H]8O[C@H](C)[C@H](O)[C@H](O)[C@H]8O[C@@H]8OC[C@@H](O)[C@H](O)[C@H]8O)[C@@H](O)[C@H](O)[C@H]7NC(C)=O)C(C)(C)[C@@H]6CC[C@]54C)[C@@H]3CC2(C)C)O[C@@H]1C [Avicin D]
A498
  IC50: 440 nM
A549
  IC50: 6900 nM
B16F10
  IC50: 660 nM
CAKI-1
  IC50: 1120 nM
CAKI-2
  IC50: 2060 nM
Hela
  IC50: 13200 nM
JEKO-1
  IC50: 420 nM
Jurkat
  IC50: 170 nM
MM1
  IC50: 100 nM
OVCAR3
  IC50: 1300 nM
U2OS
  IC50: 4400 nM
WSU-DLCL2
  IC50: 520 nM
ZR751
  IC50: 670 nM
GM0131
  IC50: 30100 nM
[1]
  development of mammospheres as measured by the size of the spheres: appear to inhibit the development of these spheres
[2]; HEK 293T cells transfected with GR
  TNF-induced activation of p(IL6-κB)350hu.IL6P-Luc: inhibited
[2]; wild type HEK 293T cells (no GR)
  luciferase activity: neither avicin D nor dexamethasone had an effect
[3]
  PKA-mediated CREB activity: inhibited PKA-mediated CREB activity
adiponectin
  expression and secretion of adiponectin: increased the expression and secretion of adiponectin
Human preadipocytes
  differentiation of preadipocytes to mature adipocytes: inhibited the differentiation of human preadipocytes to mature adipocytes
  intracellular triglyceride levels: reduced intracellular triglyceride levels
